Earlier results, collected in US20260297035A1, “PROTEIN KINASE INHIBITORS AND USES THEREOF” (DELiver Therapeutics, Inc., priority 2023, published 2026).

Tests used:
ABL2 (Arg) = details: role: cofactor; peptide substrate Tyr 02; read-out: ATP Km app; cited from earlier work
RET-S891A = details: role: cofactor; peptide substrate Tyr 06; read-out: ATP Km app; cited from earlier work
SRC = details: role: cofactor; peptide substrate Tyr 02; read-out: ATP Km app; cited from earlier work
EPHB1 = details: role: cofactor; peptide substrate Tyr 02; read-out: ATP Km app; cited from earlier work
EPHA5 = details: role: cofactor; peptide substrate Tyr 01; read-out: ATP Km app; cited from earlier work
TYK2 = details: role: cofactor; peptide substrate Tyr 03; read-out: ATP Km app; cited from earlier work
NTRK2 (TRKB) = details: role: cofactor; peptide substrate Tyr 01; read-out: ATP Km app; cited from earlier work
ABL1(wt) = ABL1(wt) (Homo sapiens, UniProt P00519); details: role: cofactor; peptide substrate Tyr 02; read-out: ATP Km app; cited from earlier work
AURKC (Aurora C) = details: role: cofactor; peptide substrate Ser/Thr 19; read-out: ATP Km app; cited from earlier work
LCK = details: role: cofactor; peptide substrate Tyr 02; read-out: ATP Km app; cited from earlier work
JAK2 = details: role: cofactor; peptide substrate Tyr 06; read-out: ATP Km app; cited from earlier work
NTRK3 (TRKC) = details: role: cofactor; peptide substrate Tyr 01; read-out: ATP Km app; cited from earlier work
EPHA8 = details: role: cofactor; peptide substrate Tyr 02; read-out: ATP Km app; cited from earlier work
BTK = details: role: cofactor; peptide substrate Tyr 01; read-out: ATP Km app; cited from earlier work
EPHA1 = details: role: cofactor; peptide substrate Tyr 02; read-out: ATP Km app; cited from earlier work
RET-A883F = details: role: cofactor; peptide substrate Tyr 04; read-out: ATP Km app; cited from earlier work
ABL1 F317L = details: role: cofactor; peptide substrate Tyr 02; read-out: ATP Km app; cited from earlier work
ITK = details: role: cofactor; peptide substrate Tyr 01; read-out: ATP Km app; cited from earlier work
TXK = details: role: cofactor; peptide substrate Tyr 06; read-out: ATP Km app; cited from earlier work
RET-V804L = details: role: cofactor; peptide substrate Tyr 02; read-out: ATP Km app; cited from earlier work
ABL1 Y253F = details: role: cofactor; peptide substrate Tyr 02; read-out: ATP Km app; cited from earlier work
JAK3 = details: role: cofactor; peptide substrate Tyr 06; read-out: ATP Km app; cited from earlier work
NTRK1 (TRKA) = details: role: cofactor; peptide substrate Tyr 01; read-out: ATP Km app; cited from earlier work
JAK1 = details: role: cofactor; peptide substrate Tyr 06; read-out: ATP Km app; cited from earlier work
SRC-N1 = details: role: cofactor; peptide substrate Tyr 02; read-out: ATP Km app; cited from earlier work
ABL1 F317I = details: role: cofactor; peptide substrate Tyr 02; read-out: ATP Km app; cited from earlier work
RET = details: role: cofactor; peptide substrate Tyr 02; read-out: ATP Km app; cited from earlier work
RET-V804E = details: role: cofactor; peptide substrate Tyr 04; read-out: ATP Km app; cited from earlier work
EPHA2 = details: role: cofactor; peptide substrate Tyr 01; read-out: ATP Km app; cited from earlier work
ABL1 G250E = details: role: cofactor; peptide substrate Tyr 02; read-out: ATP Km app; cited from earlier work
BMX = details: role: cofactor; peptide substrate Tyr 01; read-out: ATP Km app; cited from earlier work
ABL1 E255K = details: role: cofactor; peptide substrate Tyr 02; read-out: ATP Km app; cited from earlier work
AURKA (Aurora A) = details: role: cofactor; peptide substrate Ser/Thr 01; read-out: ATP Km app; cited from earlier work
ROS1 = details: role: cofactor; peptide substrate Tyr 01; read-out: ATP Km app; cited from earlier work
TNK1 = details: role: cofactor; peptide substrate Ser/Thr 13; read-out: ATP Km app; cited from earlier work
EPHB2 = details: role: cofactor; peptide substrate Tyr 02; read-out: ATP Km app; cited from earlier work
AURKB (Aurora B) = details: role: cofactor; peptide substrate Ser/Thr 01; read-out: ATP Km app; cited from earlier work
PTK2B (FAK2) = details: role: cofactor; peptide substrate Tyr 01; read-out: ATP Km app; cited from earlier work
RET-Y791F = details: role: cofactor; peptide substrate Tyr 02; read-out: ATP Km app; cited from earlier work
ABL1 T315I = molecular target: T1, ABL1 T315I (Homo sapiens, UniProt P00519, T315I); details: role: cofactor; peptide substrate Tyr 02; read-out: ATP Km app; cited from earlier work
T1 construct: The ABL1 variant polypeptides utilized contained the same polypeptide as the “isoahABL1(wt)” polypeptide except that each contained one corresponding amino acid substitution

For `Nc1ncnc2c1ncn2[C@@H]1O[C@H](COP(=O)(O)OP(=O)(O)OP(=O)(O)O)[C@@H](O)[C@H]1O` [ATP], the Km (ABL2 (Arg)) is listed as 30 µM, the Km (RET-S891A) is listed as 8 µM and the Km (SRC) is listed as 50 µM. For the same compound, the Km (EPHB1) was 61.4 µM, the Km (EPHA5) was 129 µM and the Km (TYK2) was 23 µM. The Km (NTRK2 (TRKB)) was 22 µM, the Km (ABL1(wt)) was 12 µM and the Km (AURKC (Aurora C)) was 26 µM. For the same compound, the Km (LCK) was 45 µM, the Km (JAK2) was 31 µM and the Km (NTRK3 (TRKC)) was 54 µM. The Km (EPHA8) was 123 µM, the Km (BTK) was 36 µM and the Km (EPHA1) was 18.5 µM. For the same compound, the Km (RET-A883F) was 10 µM, the Km (ABL1 F317L) was 14 µM and the Km (ITK) was 5.6 µM. For the same compound, the Km (TXK) was 96 µM, the Km (RET-V804L) was 5 µM and the Km (ABL1 Y253F) was 11.8 µM. The Km (JAK3) was 14 µM, the Km (NTRK1 (TRKA)) was 425 µM and the Km (JAK1) was 87 µM. The Km (SRC-N1) was 50 µM, the Km (ABL1 F317I) was 15 µM and the Km (RET) was 11 µM. The Km (RET-V804E) was 50 µM, the Km (EPHA2) was 65.4 µM and the Km (ABL1 G250E) was 5.4 µM. For the same compound, the Km (BMX) was 107 µM, the Km (ABL1 E255K) was 4.2 µM and the Km (AURKA (Aurora A)) was 10 µM. The Km (ROS1) was 61.4 µM, the Km (TNK1) was 237 µM and the Km (EPHB2) was 66 µM. The Km (AURKB (Aurora B)) was 81 µM, the Km (PTK2B (FAK2)) was 5 µM and the Km (RET-Y791F) was 12 µM. For the same compound, the Km (ABL1 T315I) was 2.8 µM.
